Tested on: Rat Model of Neuropathic Pain
Test: Mechanic pain test (Randall-Sellitio method) in a rat model of neuropathic pain (loose ligation of the right sciatic nerve)
Format: in vivo
Conditions: i.p., 40, 60 mg/kg equivalent of milnacipran, 15 days after surgery, tested for 2 h every 30 min, compared with milnacipran
Description: The Effect of Milnacipran and Formula I (1-1) on Nociception in a Rat Model of Neuropathic Pain
After the preoperative pain thresholds of rats determined by mechanic pain test (Randall-Sellitio method), peripheric neuropathy was formed by loose ligating the right sciatic nevre. An identical procedure was performed without ligating on the left side (sham-operation). 15 days after surgical procedure postoperative pain thresholds were determined and saline and drugs were administered via intraperitoneal (i.p) route. Drugs groups were planned as milnacipran (40, 60, 80 mg/kg), Formula I (1-1) (20, 40, 60 mg/kg equivalent of milnacipran), After saline and drug injection, the test was repeated for 2 h in every 30 min. Pain thresholds were given as mean, SEM from % values. Spontaneous locomotor activity was measured by an activity cage and movements were quantified as the total of ambulatory and stereotypic behaviour. Statistical evaluation was made with one way variance analysis (ANOVA) followed by LSD test.

SMILES: CCN(CC)C(=O)[C@]1(c2ccccc2)CC1CNC(=O)CCCC[C@]1(C)CCSS1 (stereo partly shown) [Formula I (1-1)]
- antinociceptive effect (pain thresholds): more potent antinociceptive effect

From patent publication US9233161B2, “Compositions and methods for the treatment of neurological conditions” (CELLIX BIO PRIVATE LIMITED, priority 2012, dated 2016)
